The record followed here is patent US20030059878A1, “Novel purinoceptor and gene thereof” (TANABE SEIYAKU CO., LTD, priority 2001, published 2003).

The target of the assay is T1, fusion protein of TG0022 protein and Giαl (^351Cys→Ile) (Homo sapiens, UniProt P63096+Q9BPV8, C351I).
T1 construct: made in house; host or cells: Sf9 (Spodoptera frugiperda) insect cells, baculovirus vector pVL1392; membrane fraction
Kind of assay: [35S]GTPγS binding to membrane fraction containing fusion protein of TG0022 protein and Giαl (351Cys→Ile). The conditions noted are these: Sf9 membrane fraction, TG0022-Giαl (351Cys→Ile) fusion; relative to control without test compound (FIG. 4). Type of assay: biochemical. From the text:
It was assumed that TG0022 protein would be a G protein-coupled receptor as is disclosed in Example 1. Then, by using a membrane fraction containing a fusion protein of TG0022 protein and G protein, the identification of ligand was done by a method of detecting a ligand-dependent binding with GTPγS (guanosine 5′-O-(3-thiotriphosphate)) (Wenzel-Seifert et al., Mol. Pharmacol., Vol. 58, pp. 954-966, 2000; Bahia et al., Biochemistry, Vol. 37, pp. 11555-11562, 1998).
The Sf9 cells were inoculated in a 10 cm plate which was coated with collagen so as to be about 70% confluency, and thereto were added Virus Solution III obtained above (100 μl) and a medium (12 ml), and the mixture was cultivated at 27° C. for 4 days. […]
The membrane fraction obtained in the above (2) (450 μl) was suspended into a reaction buffer (7.54 ml), and thereto was added GDP (10 mM, 10 μl). […] The filter was washed with a cooled reaction buffer (200 μl) three times, and the amount of [^35S]GTPγS (amount bound to the membrane fraction) on the filter was measured by a liquid scintillator. […] GTPγS was calculated by reducting an amount of non-specifically bound [^35S] GTPγS (which was measured in the presence of 10 μM GTPγS) from the amount of [^35S]GTPγS obtained above.
(In general: GTPγS is a poorly hydrolysed GTP analogue; its binding reports G protein activation.)

The structures appear in SMILES notation.

T1 sequence (Q9BPV8+P63096 fused P63096:C351I): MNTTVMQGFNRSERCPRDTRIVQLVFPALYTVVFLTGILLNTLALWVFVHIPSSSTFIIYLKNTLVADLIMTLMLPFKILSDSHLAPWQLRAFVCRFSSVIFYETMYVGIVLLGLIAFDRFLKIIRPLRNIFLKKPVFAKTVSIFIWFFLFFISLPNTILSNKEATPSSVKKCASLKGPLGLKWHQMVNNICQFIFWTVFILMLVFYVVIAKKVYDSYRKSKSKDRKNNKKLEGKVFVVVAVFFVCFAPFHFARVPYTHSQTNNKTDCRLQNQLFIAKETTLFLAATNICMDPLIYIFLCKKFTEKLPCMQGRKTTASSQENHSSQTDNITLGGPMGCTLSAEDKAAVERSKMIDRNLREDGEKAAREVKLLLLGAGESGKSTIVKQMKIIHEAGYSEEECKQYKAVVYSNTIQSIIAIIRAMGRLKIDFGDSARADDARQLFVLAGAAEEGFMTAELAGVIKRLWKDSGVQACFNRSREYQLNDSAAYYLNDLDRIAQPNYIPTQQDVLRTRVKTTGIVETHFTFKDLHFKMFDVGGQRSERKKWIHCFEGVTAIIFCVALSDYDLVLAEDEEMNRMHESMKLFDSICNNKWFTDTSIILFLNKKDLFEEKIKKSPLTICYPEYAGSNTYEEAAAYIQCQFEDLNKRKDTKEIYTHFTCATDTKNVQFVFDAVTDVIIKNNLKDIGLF

With `Nc1ncnc2c1ncn2[C@@H]1O[C@H](COP(=O)(O)OP(=O)(O)O)[C@@H](O)[C@H]1O` [ADP], the “specific binding amount of [^35S] GTPγS” value is on record as “increased dependent on the concentration”.
The value for `Nc1ncnc2c1ncn2[C@@H]1O[C@H](COP(=O)(O)OP(=O)(O)OP(=O)(O)O)[C@@H](O)[C@H]1O` [ATP] was “increased dependent on the concentration”.
